Measured values from patent US9725439B2, “Quinazoline derivative and preparation method therefor” (CHIA TAI TIANQING PHARMACEUTICAL GROUP CO., LTD., priority 2013, dated 2017).

Legend:
[1] = system: BT474, a human breast cancer cell line; assay: Proliferation test of anchorage-independent cells; type: cell-based; details: BT-474, 168 h, BT474, soft agarose, 7 days, CellTiter-Blue
Experimental: (§1) 2. Proliferation Test of Anchorage-Independent Cells
(§2) NCI-H1975, a human non-small cell lung cancer cell, and BT474, a human breast cancer cell line, were incubated with RPIM-1640 or DMEM medium supplemented with 10% fetal bovine serum (FBS) in a cell incubator (37° C., 5% CO2). In the test of the compounds, the coated substrate with a concentration of 0.6% was used. The cells were screened with 0.3% low melting point agarose, then plated into 96-well plates with a density of 10,000 cells per well (100 μL). Starting from 10 mM, the compounds were diluted in a gradient of 3 times. For each concentration, 2 μL of the solution was taken and added into 98 μL of medium, then 5.3 μL of the mixture was added into the cell culture medium (where the final concentration of DMSO was 0.1%, v/v). After one week (7 days) of treatment, 20 μL of CellTiter-Blue®reagent (Promega) was added, incubated at 37° C. for 4 h. The fluorescent signal was read on Envison (Perkin Elmer).

[2] = system: NCI-H1975, a human non-small cell lung cancer cell; assay: Proliferation test of anchorage-independent cells; type: cell-based; details: 168 h, NCI-H1975, soft agarose, 7 days, CellTiter-Blue
Experimental: as §1, §2

[3] = target: HER2 (Homo sapiens (Human), UniProt P04626); assay: In vitro enzymology test (HTRF kinase activity); type: biochemical; details: read-out: Enzyme activity (IC50 nM) HER2
Sequence of HER2 (P04626 23-1255): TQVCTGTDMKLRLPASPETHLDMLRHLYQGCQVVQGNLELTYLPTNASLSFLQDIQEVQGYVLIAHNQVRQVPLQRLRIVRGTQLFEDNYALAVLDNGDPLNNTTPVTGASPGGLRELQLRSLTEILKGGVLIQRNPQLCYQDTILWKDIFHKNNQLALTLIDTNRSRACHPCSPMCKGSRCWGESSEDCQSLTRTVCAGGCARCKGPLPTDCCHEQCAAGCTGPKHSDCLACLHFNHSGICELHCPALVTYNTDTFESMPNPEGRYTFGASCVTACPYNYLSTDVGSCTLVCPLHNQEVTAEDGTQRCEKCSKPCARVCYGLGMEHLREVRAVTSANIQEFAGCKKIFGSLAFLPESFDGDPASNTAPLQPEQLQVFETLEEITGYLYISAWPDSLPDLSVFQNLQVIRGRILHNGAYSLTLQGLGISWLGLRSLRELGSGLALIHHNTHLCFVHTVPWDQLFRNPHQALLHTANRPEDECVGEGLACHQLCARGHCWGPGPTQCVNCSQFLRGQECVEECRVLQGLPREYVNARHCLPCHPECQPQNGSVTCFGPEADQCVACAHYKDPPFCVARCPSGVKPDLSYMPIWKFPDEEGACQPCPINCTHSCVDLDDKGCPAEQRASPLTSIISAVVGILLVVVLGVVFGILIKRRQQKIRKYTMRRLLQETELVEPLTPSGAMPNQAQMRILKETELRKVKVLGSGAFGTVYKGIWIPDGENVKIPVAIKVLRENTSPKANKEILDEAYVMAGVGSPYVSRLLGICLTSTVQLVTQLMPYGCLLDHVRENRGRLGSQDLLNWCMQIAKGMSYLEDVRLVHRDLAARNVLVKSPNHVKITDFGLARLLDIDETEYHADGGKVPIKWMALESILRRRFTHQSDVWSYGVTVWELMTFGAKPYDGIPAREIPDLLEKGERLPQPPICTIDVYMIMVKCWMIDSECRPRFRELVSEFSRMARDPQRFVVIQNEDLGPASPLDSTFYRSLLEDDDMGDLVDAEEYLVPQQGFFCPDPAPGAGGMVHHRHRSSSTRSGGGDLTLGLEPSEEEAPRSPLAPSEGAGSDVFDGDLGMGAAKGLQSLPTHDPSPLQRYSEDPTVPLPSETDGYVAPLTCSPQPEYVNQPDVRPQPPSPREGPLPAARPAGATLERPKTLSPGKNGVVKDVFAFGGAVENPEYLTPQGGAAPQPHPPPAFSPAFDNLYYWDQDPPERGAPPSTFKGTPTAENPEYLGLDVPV
From the text: 1. The Method for In Vitro Enzymology Test
EGFR, EGFR (T790M, L858R), HER2 kinase were expressed and purified through an insect cell expression system by the Department of Biology, Centaurus Biopharma, Beijing, or purchased from commercially available products.
The platform for testing the kinase activity of EGFR, EGFR (T790M, L858R) and HER2 was established based on the homogeneous time-resolved fluorescence (HTRF) method provided by Cisbio Bioassays, and the activity of the compounds was determined with the platform. […]. And 2.5 μL of the mixture was taken, added into 384-well plates (OptiPlate-384, PerkinElmer), then 2.5 μL of kinase was added, mixed thoroughly by centrifuge. Then 5 μL of ATP and TK Substrate-biotin were added to initiate the reaction. The 384-well plates were incubated at 23° C. in an incubator for a certain period of time, then 5 μL of Eu3^+-Cryptate labeled TK-Antibody and 5 μL of streptavidin-XL665 were added to stop the reaction. After 1 h incubation in an incubator, the fluorescence value was read on Envision (PerkinElmer). The IC50 value of the compound was calculated with the software GraphPad Prism 5.0.

[4] = Pharmacokinetics test on rats; type: in vivo; details: rat, po; male rats, gavage, single dose 5 mg/kg, plasma
Experimental: Pharmacokinetics Test on Rats
In this study, 6 healthy adult male rats (from Beijing Vital River Laboratory Animal Technology Co., Ltd.) were used. The animals were fast overnight before the experiment. The fasting period was from 12 h prior to the administration, till 4 h after the administration. Drug administration was performed through gavage at a single dose of 5 mg/kg. The compounds to be tested were dissolved in 20% aqueous solution of sulfobutyl-β-cyclodextrin (SBE). Blood samples were collected 0.25, 0.5, 1, 2, 4, 6, 8 and 24 hours after drug administration. During blood sampling, the animals were lightly anesthetized with isoflurane, and approximately 0.5 mL whole blood was collected from retro-orbital venous sinus, placed into tubes that contain heparin as anticoagulant. The samples were centrifuged at 4° C., 4000 rpm for 5 min. The plasma was transferred into centrifuge tubes, and stored at −80° C. till being analyzed. The drug concentration in the plasma was quantitatively analyzed with liquid chromatography-tandem mass spectrometry (LC-MS/MS). From the analysis result of the samples, the pharmacokinetic parameter of the compounds was calculated with WinNonlin (WinNonlin Professional, version […]).

Compound	IC50 [1] [nM]	IC50 [2] [nM]	IC50 [3] [nM]	AUC(0-inf) [4] [ng·h/mL]	Cmax [4] [ng/mL]	Tmax [4] [h]	half-life [4] [h]
C=CC(=O)N1CCC(Nc2cc3c(Nc4ccc(F)c(Cl)c4)ncnc3cc2OC)CC1 [Example 2, N^6-(1-acryloylpiperidin-4-yl)-N^4-(3-chloro-4-fluorophenyl)-7-methoxyquinazoline-4,6-diamine]	2.1	14	0.2	11000	1970	1	2.39
C=CC(=O)N1CCC(Nc2cc3c(Nc4ccc(OCc5ccccn5)c(Cl)c4)ncnc3cc2OC)CC1 [Example 8, 1-(4-(4-(3-chloro-4-(pyridin-2-ylmethoxy)phenylamino)-7-methoxyquinazoline-6-ylamino)piperidin-1-yl)prop-2-ene-1-one]	62.1	244	1.2	–	–	–	–
C=CC(=O)N1CC(Nc2cc3c(Nc4cccc(C(C)=O)c4)ncnc3cc2OC)C1 [Example 13, N^4-(3-acetylphenyl)-N^6-(1-acryloylazetidin-3-yl)-7-methoxyquinazoline-4,6-diamine]	–	–	0.5	–	–	–	–
C=CC(=O)N1CCC(Nc2cc3c(Nc4ccc(F)c(Cl)c4)ncnc3cc2O[C@H]2CCOC2)CC1 [Example 4, (S)—N^6-(1-acryloylpiperidin-4-yl)-N^4-(3-chloro-4-fluorophenyl)-7-(tetrahydrofuran-3-yloxy)quinazoline-4,6-diamine]	1.6	25.6	0.4	–	–	–	–
C=CC(=O)N1CC(Nc2cc3c(Nc4ccc(F)c(Cl)c4)ncnc3cc2O[C@H]2CCOC2)C1 [Example 3, (S)—N^6-(1-acryloylazetidin-3-yl)-N^4-(3-chloro-4-fluorophenyl)-7-(tetrahydrofuran-3-yloxy)quinazoline-4,6-diamine]	5.1	31.4	0.3	–	–	–	–
C=CC(=O)N1CC(Nc2cc3c(Nc4ccc(F)c(Cl)c4)ncnc3cc2OC)C1 [Example 1, N^6-(1-acryloylazetidin-3-yl)-N^4-(3-chloro-4-fluorophenyl)-7-methoxyquinazoline-4,6-diamine]	4.2	21.8	0.5	1350	588	0.5	1.3

Further lines, results first:

IC50 [1] [nM]	IC50 [2] [nM]	IC50 [3] [nM]	AUC(0-inf) [4] [ng·h/mL]	Cmax [4] [ng/mL]	Tmax [4] [h]	half-life [4] [h]	Compound
4.7	71.5	0.4	–	–	–	–	C=CC(=O)N1CCC(Nc2cc3c(Nc4ccc(F)c(Cl)c4)ncnc3cc2OCCOC)CC1 [Example 17, N^6-(1-acryloylpiperidin-4-yl)-N^4-(3-chloro-4-fluorophenyl)-7-(2-methoxyethoxy)quinazoline-4,6-diamine]
97.1	274	–	–	–	–	–	C=CC(=O)N1CC(Sc2cc3c(Nc4ccc(F)c(Cl)c4)ncnc3cc2OC)C1 [Example 19, 6-(1-acryloylazetidin-3-yl)-thio-N-(3-chloro-4-fluorophenyl)-7-methoxyquinazoline-4-amine]
8.7	32.4	0.3	–	–	–	–	C=CC(=O)N1CC(Nc2cc3c(Nc4ccc(F)c(Cl)c4)ncnc3cc2OCCOC)C1 [Example 16, N^6-(1-acryloylazetidin-3-yl)-N^4-(3-chloro-4-fluorophenyl)-7-(2-methoxyethoxy)quinazoline-4,6-diamine]
4.6	59.3	0.2	–	–	–	–	C=CC(=O)N1CC(Nc2cc3c(Nc4cccc(Br)c4)ncnc3cc2OC)C1 [Example 14, N^6-(1-acryloylazetidin-3-yl)-N^4-(3-bromophenyl)-7-methoxyquinazoline-4,6-diamine]
4.2	56	0.2	–	–	–	–	C=CC(=O)N1CCC(Nc2cc3c(Nc4cccc(Br)c4)ncnc3cc2OC)CC1 [Example 15, N^6-(1-acryloylpiperidin-4-yl)-N^4-(3-bromophenyl)-7-methoxyquinazoline-4,6-diamine]
